Data on 21 compounds can be found in ChEMBL document CHEMBL5370569, “Camaldulensals A-C, the First Meroterpenoids Possessing Two Spatially Separated Formyl Phloroglucinols Conjugated to a Terpene Core from the Leaves of Eucalyptus camaldulensis Dehnh” (2023).

In brackets after ≈: the same amount, converted by molar mass.

Format in all cases: functional
Test [1] has as its system Staphylococcus aureus. The test is described as follows: Antibacterial activity against Staphylococcus aureus assessed as bacterial growth inhibtion incubated for 18 hrs by resazurin dye based microdilution assay.
Test [2] relates to Staphylococcus aureus. The test is described as follows: Antibacterial activity against Methicillin-sensitive Staphylococcus aureus ATCC 25923 assessed as bacterial growth inhibtion incubated for 18 hrs by resazurin dye based microdilution assay.
Test [3] deals with Staphylococcus aureus. The test can be described thus: Antibacterial activity against Methicillin-resistant Staphylococcus aureus ATCC 43300 assessed as bacterial growth inhibtion incubated for 18 hrs by resazurin dye based microdilution assay.
The subject of test [4] is Staphylococcus aureus. The test can be described thus: Potency index, ratio of eucalrobusone-F MIC to test compound MIC for antibacterial activity against Staphylococcus aureus.

In the case of `C=C(C)[C@@H]1C=C2[C@@H](C)CC[C@@H](Cc3c(O)c(C=O)c(O)c(C(=O)CC(C)C)c3O)[C@]2(C)CC1`, the MIC with Staphylococcus aureus [1] came to 4.7 µM (≈ 2.14 µg/mL).
For the compound `CC(C)CC(=O)c1c(O)c(C=O)c(O)c(C[C@H]2CC(C(C)C)=C[C@H]3Oc4c(c(O)c(C=O)c(O)c4C(=O)CC(C)C)C[C@@]23C)c1O`, the MIC in the test with Staphylococcus aureus [2], in the test with Staphylococcus aureus [3] and in the test with Staphylococcus aureus [1] was 12.6 µM (≈ 8.02 µg/mL) each time.
As to `CC(=O)CC[C@@H]1[C@H]([C@@H]2C[C@@](C)(C(CC(C)C)c3c(O)c(C=O)c(O)c(C=O)c3O)CC2=O)C1(C)C` (some centres not stated), the minimal inhibitory concentration (MIC) in the test with Staphylococcus aureus [1] turned out to be 16.5 µM (≈ 8.03 µg/mL).
For `CC(C)CC(=O)c1c(O)c(C=O)c2c(c1O)C[C@@H]1CC(=O)CC[C@]1(C)O2`, the MIC with Staphylococcus aureus [2] and in the test with Staphylococcus aureus [3] was above 899 µM throughout.
For `C=C(C)[C@@H]1CC[C@@]2(C)[C@H](Cc3c(O)c(C=O)c(O)c(C(=O)CC(C)C)c3O)CC[C@@](C)(O)[C@@H]2C1`, the MIC in the test on Staphylococcus aureus [1] was 19.9 µM (≈ 9.41 µg/mL).
Regarding `CC(C)C[C@@H](c1c(O)c(C=O)c(O)c(C=O)c1O)C1CC[C@@](C)(O)[C@@H]2C[C@H](C(C)(C)O)CC[C@@]12C` (some centres not stated), the MIC in the test on Staphylococcus aureus [1] was 16.8 µM (≈ 8.24 µg/mL).
For the compound `C=C1CC[C@@H]2[C@H]([C@H]3[C@H]1CC[C@]3(C)Cc1c(O)c(C=O)c(O)c(C(=O)CCC)c1O)C2(C)C`, the minimal inhibitory concentration (MIC) in the test with Staphylococcus aureus [1] turned out to be 7.1 µM (≈ 3.13 µg/mL).
Turning to `CC(C)CC(=O)c1c(O)c(C=O)c(O)c2c1O[C@]1(C)[C@H](C2)C[C@@]2(C(C)C)C[C@H]21`, the MIC in the test with Staphylococcus aureus [2] and with Staphylococcus aureus [3] was above 82.9 µM each time.
On to `CC(C)CC(=O)c1c(O)c(C=O)c(O)c(C[C@H]2CC(C(C)C)=C[C@H]3Oc4c(C=O)c(O)c(C(=O)CC(C)C)c(O)c4C[C@@]23C)c1O`, for which the MIC in the test with Staphylococcus aureus [2], with Staphylococcus aureus [3] and in the test on Staphylococcus aureus [1] was 6.3 µM (≈ 4.01 µg/mL) each time. In addition, the Ratio with Staphylococcus aureus [4] is around 2.
`CC(C)CC(c1c(O)c(C=O)c(O)c(C=O)c1O)C1(C)C=C2CCC1C(C(C)(C)O)CCC2C` (configuration not stated): the MIC in the test on Staphylococcus aureus [1] amounted to 3.4 µM (≈ 1.61 µg/mL).
Same read-out and setting: then `C=C(C)[C@@H]1C=C2[C@@H](C)CC[C@@H](Cc3c(O)c(C=O)c(O)c(C(=O)CCC)c3O)[C@]2(C)CC1`, with 3.5 µM (≈ 1.54 µg/mL); and `CC(C)CC(c1c(O)c(C=O)c(O)c(C=O)c1O)C1(C)CCC2C1C1C(CCC2(C)O)C1(C)C` (configuration not stated), with 3.3 µM (≈ 1.56 µg/mL).
Turning to `Cc1c(O)c(C=O)c(O)c([C@H]2Oc3c(C=O)c(O)c(C(=O)CC(C)C)c(O)c3C[C@@H]2C(C)C)c1O`, the minimum inhibitory concentration (MIC) with Staphylococcus aureus [2] and with Staphylococcus aureus [3] was above 65.8 µM each time.
In the case of `C=C1CCC2C(C3C1CCC3(C)C(CC(C)C)c1c(O)c(C=O)c(O)c(C=O)c1O)C2(C)C` (configuration not stated), the MIC with Staphylococcus aureus [1] stood at 6.9 µM (≈ 3.14 µg/mL).
On the same count and under the same terms, to `CC(C)CC(c1c(O)c(C=O)c(O)c(C=O)c1O)C1(C)CCC2C1=CC(C(C)(C)O)CCC2C` (configuration not stated) belongs 3.3 µM (≈ 1.56 µg/mL).
Consider `CC(C)CC(=O)c1c(O)c(C=O)c(O)c2c1O[C@H]1[C@H]3[C@@H](CC[C@]4(C)Oc5c(c(O)c(C=O)c(O)c5C(=O)CC(C)C)C[C@H]4CC[C@]1(C)C2)C3(C)C`, for which the minimal inhibitory concentration (MIC) in the test on Staphylococcus aureus [2] and with Staphylococcus aureus [3] was above 45.4 µM each time.
Consider `CC(C)CC(c1c(O)c(C=O)c(O)c(C=O)c1O)C1(C)/C=C2/CCC2C(C(C)(C)O)CCC1C` (configuration not stated), for which the minimal inhibitory concentration (MIC) in the test on Staphylococcus aureus [1] was 1.7 µM (≈ 0.803 µg/mL).
In the case of `CC(C)C[C@H]1c2c(O)c(C=O)c(O)c(C=O)c2O[C@]2(C)C=CC(=O)C[C@@H]12`, the MIC in the test on Staphylococcus aureus [2] and in the test on Staphylococcus aureus [3] was above 89.4 µM in each case.
On to `CC(C)CC(=O)c1c(O)c(C=O)c(O)c(C[C@@]2(C)CC[C@@H]3[C@@H]2[C@H]2[C@@H](CC[C@@]3(C)O)C2(C)C)c1O` [EUCALYPTIN A], for which the MIC in the test with Staphylococcus aureus [1] came out at 7.4 µM (≈ 3.5 µg/mL).
`CC(C)C[C@@H](c1c(O)c(C=O)c(O)c(C=O)c1O)[C@@]1(C)CC[C@@H]2[C@@H]1[C@H]1[C@@H](CC[C@@]2(C)O)C1(C)C` [MACROCARPAL A]: in the test with Staphylococcus aureus [1], the minimal inhibitory concentration (MIC) came out at 3.3 µM (≈ 1.56 µg/mL).
For `CO[C@H]1/C=C/O[C@@]2(C)Oc3c(C)c(O)c4c(O)c(c(/C=N/N5CCN(C)CC5)c(O)c4c3C2=O)NC(=O)/C(C)=C\C=C\[C@H](C)[C@H](O)[C@@H](C)[C@@H](O)[C@@H](C)[C@H](OC(C)=O)[C@@H]1C` [RIFAMPIN], the MIC with Staphylococcus aureus [2] and in the test on Staphylococcus aureus [3] was 0.16 µM (≈ 0.132 µg/mL) each time.
